Where two headings read alike, the source gives them in different places.
Key:
[1] = target: T1, BTK (Homo sapiens (Human), UniProt Q06187)
Procedure: (§1) Btk kinase activity was determined using a homogenous time resolved fluorescence (HTRF) methodology. Measurements were performed in a reaction volume of 15 μL using 384-well assay plates. Kinase enzyme, inhibitor, ATP and 1 μM peptide substrate were incubated in a reaction buffer compose of Hepes50 mM (pH7.0), NaN3 0.02%, BSA 0.01%, Orthocanadate 0.1 mM. […] For each compound, enzyme activity as measured at various concentrations of compound, Negative control reactions were performed in the absence of inhibitor in two replicates and eight no enzyme controls were used to determine baseline fluorescence levels.

[2] = target: LYN (Homo sapiens (Human), UniProt P07948); conditions: read-out: LYN IC50, [ATP]=20 μM
Procedure: as §1
(§2) For LYN assay, [ATP]=20 μM, LYN=0.12 n M. For LCK assay, [ATP]=20 μM, LCK=0.2 nM.

[3] = target: LCK (Homo sapiens (Human), UniProt P06239); conditions: read-out: LCK IC50; [ATP]=20 μM, LCK=0.2 nM
Procedure: as §1, §2

[4] = target: TEC (Homo sapiens (Human), UniProt P42680); assay: biochemical
[5] = target: EGFR (Homo sapiens (Human), UniProt P00533); assay: biochemical
Sequence of EGFR (P00533 whole entry, looked up, species assumed): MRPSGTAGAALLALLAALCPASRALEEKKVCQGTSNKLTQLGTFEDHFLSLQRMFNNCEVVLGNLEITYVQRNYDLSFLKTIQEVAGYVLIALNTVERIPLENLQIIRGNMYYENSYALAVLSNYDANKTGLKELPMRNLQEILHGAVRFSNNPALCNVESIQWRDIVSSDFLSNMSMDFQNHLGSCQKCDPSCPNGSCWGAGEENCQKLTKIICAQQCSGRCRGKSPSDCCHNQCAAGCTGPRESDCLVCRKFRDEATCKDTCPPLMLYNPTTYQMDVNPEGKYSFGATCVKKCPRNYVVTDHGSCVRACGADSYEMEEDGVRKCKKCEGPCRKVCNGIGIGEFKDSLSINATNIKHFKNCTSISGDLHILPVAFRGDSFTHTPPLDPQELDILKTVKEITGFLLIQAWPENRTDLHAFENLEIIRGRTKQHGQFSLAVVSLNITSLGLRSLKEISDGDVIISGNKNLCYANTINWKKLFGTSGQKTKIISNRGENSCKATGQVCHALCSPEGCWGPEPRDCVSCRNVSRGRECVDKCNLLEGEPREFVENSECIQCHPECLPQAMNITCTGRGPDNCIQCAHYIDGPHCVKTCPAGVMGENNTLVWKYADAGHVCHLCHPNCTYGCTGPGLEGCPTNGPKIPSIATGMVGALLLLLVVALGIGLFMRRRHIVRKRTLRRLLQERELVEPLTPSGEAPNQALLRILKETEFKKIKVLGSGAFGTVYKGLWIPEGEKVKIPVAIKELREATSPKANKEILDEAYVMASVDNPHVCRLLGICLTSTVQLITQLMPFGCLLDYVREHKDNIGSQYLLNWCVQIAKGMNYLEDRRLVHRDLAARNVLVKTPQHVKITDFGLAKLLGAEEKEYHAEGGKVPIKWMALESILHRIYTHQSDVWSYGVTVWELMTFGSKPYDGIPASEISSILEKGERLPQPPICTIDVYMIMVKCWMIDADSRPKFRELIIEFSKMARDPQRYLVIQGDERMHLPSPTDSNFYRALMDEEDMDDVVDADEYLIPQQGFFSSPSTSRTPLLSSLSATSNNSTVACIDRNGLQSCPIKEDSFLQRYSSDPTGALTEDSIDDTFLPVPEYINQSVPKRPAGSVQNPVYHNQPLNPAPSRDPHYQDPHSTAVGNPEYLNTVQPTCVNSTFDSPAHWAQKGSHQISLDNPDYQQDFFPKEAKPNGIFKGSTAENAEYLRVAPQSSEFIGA

[6] = target: ITK (Homo sapiens (Human), UniProt Q08881); assay: biochemical
Sequence of ITK (Q08881 whole entry, looked up, species assumed): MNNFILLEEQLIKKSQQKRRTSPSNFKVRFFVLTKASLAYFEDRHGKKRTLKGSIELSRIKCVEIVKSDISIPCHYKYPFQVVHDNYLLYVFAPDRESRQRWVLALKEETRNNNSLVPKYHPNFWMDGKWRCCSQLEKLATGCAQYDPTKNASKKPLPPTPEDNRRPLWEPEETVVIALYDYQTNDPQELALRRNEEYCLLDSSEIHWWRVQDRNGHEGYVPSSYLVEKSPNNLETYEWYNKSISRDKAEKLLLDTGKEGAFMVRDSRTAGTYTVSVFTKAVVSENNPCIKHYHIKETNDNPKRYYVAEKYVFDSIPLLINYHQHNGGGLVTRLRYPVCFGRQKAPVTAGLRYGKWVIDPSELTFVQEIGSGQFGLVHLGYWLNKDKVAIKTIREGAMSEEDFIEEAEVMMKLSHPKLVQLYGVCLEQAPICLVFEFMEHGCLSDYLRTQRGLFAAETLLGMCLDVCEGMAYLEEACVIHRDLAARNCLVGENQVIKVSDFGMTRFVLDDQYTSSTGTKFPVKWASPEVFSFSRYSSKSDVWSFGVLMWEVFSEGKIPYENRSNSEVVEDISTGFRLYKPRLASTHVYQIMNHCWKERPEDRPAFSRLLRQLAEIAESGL

[7] = target: Btk (Mus musculus (Mouse), UniProt P35991); assay: Btk occupancy in vivo (PBMCs or splenocytes, PCI-33380 labeling); conditions: 4 hours after dosing, Babc/L mice
Sequence of Btk (P35991 whole entry, looked up): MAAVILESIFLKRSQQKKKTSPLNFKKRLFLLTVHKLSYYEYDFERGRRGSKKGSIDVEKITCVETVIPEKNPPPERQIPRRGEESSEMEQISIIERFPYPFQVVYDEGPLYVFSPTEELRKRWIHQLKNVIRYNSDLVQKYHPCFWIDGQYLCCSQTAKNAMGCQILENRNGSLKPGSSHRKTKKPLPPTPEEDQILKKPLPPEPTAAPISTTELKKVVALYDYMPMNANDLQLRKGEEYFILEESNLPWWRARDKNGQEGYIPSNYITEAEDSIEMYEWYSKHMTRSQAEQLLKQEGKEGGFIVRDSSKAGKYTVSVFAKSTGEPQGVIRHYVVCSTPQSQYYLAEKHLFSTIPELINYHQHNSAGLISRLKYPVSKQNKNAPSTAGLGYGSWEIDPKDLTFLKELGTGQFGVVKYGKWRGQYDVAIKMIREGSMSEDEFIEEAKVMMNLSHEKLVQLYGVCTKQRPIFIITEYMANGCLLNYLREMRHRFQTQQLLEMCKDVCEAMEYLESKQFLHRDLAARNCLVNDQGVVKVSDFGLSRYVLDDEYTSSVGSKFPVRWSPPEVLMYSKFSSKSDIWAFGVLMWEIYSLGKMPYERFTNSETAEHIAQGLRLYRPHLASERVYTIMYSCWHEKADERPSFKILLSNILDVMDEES
Procedure: For analysis of Btk occupancy in Babc/L mice following oral dosing of compounds after 4 hours. Isolating peripheral blood mononuclear cells (PBMCs) with mouse peripheral blood separation kit (Hao Yang Biological Manufacture CO., LTD, Tianjin) were collected from Babc/L mice (1 ml blood from two mice). Spleens were processed to splenocytes followed by 5 min incubation in red blood cell lysing buffer (from mouse peripheral blood separation kit).

[8] = target: T1, BTK; assay: biochemical
Procedure: as §1

Sequence of TEC (P42680 whole entry, looked up): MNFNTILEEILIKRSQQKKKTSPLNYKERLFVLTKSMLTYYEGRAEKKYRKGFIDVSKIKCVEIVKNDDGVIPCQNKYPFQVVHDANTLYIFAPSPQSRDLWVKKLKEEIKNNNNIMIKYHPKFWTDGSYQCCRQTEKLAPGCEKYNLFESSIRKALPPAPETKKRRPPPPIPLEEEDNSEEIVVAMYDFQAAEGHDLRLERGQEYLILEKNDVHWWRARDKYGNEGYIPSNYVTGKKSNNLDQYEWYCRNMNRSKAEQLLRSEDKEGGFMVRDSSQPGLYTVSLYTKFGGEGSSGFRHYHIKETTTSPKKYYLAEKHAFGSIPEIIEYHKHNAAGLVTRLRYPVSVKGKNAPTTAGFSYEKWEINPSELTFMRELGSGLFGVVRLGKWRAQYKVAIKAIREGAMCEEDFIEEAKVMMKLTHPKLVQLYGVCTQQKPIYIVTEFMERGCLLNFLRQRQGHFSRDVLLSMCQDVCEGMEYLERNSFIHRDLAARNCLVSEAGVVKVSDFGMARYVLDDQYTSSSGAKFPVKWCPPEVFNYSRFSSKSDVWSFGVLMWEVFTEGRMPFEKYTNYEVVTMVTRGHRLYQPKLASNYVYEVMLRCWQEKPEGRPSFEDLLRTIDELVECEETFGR
Sequence of LCK (P06239 whole entry, looked up, species assumed): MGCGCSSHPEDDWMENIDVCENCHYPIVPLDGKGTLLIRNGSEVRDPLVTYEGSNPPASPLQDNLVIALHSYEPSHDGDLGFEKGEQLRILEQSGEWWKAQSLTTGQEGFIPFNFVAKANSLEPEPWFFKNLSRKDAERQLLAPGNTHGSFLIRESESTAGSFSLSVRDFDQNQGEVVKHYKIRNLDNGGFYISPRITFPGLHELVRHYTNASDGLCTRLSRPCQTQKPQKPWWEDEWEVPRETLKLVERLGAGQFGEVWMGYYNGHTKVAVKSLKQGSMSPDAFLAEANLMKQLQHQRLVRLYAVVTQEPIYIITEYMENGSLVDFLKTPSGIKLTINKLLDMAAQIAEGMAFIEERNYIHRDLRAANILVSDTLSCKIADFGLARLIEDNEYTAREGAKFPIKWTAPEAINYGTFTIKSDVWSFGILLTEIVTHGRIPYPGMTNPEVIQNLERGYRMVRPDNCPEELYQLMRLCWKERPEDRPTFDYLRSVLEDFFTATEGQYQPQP
T1 sequence (Q06187 whole entry, looked up, species assumed): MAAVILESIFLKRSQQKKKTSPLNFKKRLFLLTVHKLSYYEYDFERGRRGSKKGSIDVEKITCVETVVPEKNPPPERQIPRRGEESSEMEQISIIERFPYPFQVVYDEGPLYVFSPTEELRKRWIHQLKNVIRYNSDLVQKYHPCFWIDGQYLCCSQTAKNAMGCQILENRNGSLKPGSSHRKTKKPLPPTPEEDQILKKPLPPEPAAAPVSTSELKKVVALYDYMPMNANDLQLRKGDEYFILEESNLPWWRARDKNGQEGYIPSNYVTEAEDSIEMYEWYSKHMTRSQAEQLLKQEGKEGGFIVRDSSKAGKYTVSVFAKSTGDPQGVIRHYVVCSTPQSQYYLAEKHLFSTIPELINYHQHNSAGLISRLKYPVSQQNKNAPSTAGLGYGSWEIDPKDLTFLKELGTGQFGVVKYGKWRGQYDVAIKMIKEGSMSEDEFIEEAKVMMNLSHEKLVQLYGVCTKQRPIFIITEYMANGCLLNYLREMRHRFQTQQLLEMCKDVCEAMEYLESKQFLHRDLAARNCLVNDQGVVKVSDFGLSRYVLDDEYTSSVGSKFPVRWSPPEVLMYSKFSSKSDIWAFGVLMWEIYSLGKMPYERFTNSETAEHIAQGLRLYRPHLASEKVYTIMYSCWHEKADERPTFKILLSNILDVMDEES
Sequence of LYN (P07948 whole entry, looked up, species assumed): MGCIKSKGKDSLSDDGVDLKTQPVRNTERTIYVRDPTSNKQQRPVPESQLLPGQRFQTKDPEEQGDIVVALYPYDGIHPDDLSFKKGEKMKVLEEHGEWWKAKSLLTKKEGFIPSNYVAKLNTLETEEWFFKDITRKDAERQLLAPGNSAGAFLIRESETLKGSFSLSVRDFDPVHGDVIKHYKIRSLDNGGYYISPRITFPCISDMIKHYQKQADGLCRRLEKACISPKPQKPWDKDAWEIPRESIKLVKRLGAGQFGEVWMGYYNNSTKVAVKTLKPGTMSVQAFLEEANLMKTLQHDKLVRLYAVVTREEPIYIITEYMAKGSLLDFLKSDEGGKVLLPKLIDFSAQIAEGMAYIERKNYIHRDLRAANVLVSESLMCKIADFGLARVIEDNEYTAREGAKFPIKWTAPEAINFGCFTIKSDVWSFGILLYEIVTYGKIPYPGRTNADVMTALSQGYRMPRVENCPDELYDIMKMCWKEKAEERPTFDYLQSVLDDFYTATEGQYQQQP

C=CC(=O)N1CCC[C@H]1c1nc(-c2ccc(Oc3cccc(F)c3F)cc2)c2cnccn12 [Example 20, (S)-1-(2-(1-(4-(2,3-difluorophenoxy)phenyl)imidazo[1,5-a]pyrazin-3-yl)pyrrolidin-1-yl)prop-2-en-1-one]
IC50 ([1]; read-out: BTK IC50): < 10 nM
IC50 ([1]; read-out: BTK Inhibition): < 10 nM
IC50 [2]: > 10000 nM
IC50 [3]: > 10000 nM
IC50 [4]: 100 to 1000 nM
IC50 [5]: 1000 to 10000 nM
IC50 [6]: 1000 to 10000 nM

CC#CC(=O)N1CCCC[C@H]1c1nc(-c2ccc(Oc3cccc(OC)c3F)cc2)c2c(C)nccn12 [Example 5, (S)-1-(2-(1-(4-(2-Fluoro-3-methoxyphenoxy)phenyl)-8-methylimidazo[1,5-a]pyrazin-3-yl)piperidin-1-yl)but-2-yn-1-one]
Btk occupancy in vivo ([7]; 10 mg/kg single oral dose): full occupancy

C=CC(=O)N1CCC[C@H]1c1nc(-c2ccc(OCc3c(F)cccc3F)cc2)c2cnccn12 [Example 136, (S)-1-(2-(1-(4-((2,6-difluorobenzyl)oxy)phenyl)imidazo[1,5-a]pyrazin-3-yl)pyrrolidin-1-yl)prop-2-en-1-one]
IC50 ([1]; read-out: BTK IC50): 10 to 100 nM
IC50 [2]: > 10000 nM
IC50 [3]: > 10000 nM
IC50 [8]: 10 to 100 nM
IC50 [4]: 100 to 1000 nM
IC50 [5]: 1000 to 10000 nM
IC50 [6]: 1000 to 10000 nM

C=CC(=O)N1CCCC[C@H]1c1nc(-c2ccc(Oc3cccc(OC)c3F)cc2)c2c(C)nccn12 [Example 27, (S)-1-(2-(1-(4-(2-fluoro-3-methoxyphenoxy)phenyl)-8-methylimidazo[1,5-a]pyrazin-3-yl)piperidin-1-yl)prop-2-en-1-one]
Btk occupancy in vivo ([7]; 10 mg/kg single oral dose): full occupancy
IC50 ([1]; read-out: BTK IC50): < 10 nM
IC50 ([1]; read-out: BTK Inhibition): < 10 nM
IC50 [2]: > 10000 nM
IC50 [3]: > 10000 nM
IC50 [4]: 100 to 1000 nM
IC50 [5]: 100 to 1000 nM
IC50 [6]: 1000 to 10000 nM

C=CC(=O)N1CCC[C@H]1c1nc(-c2ccc(Oc3cccc(OC)c3F)cc2)c2cnccn12 [Example 30, (S)-1-(2-(1-(4-(2-fluoro-3-methoxyphenoxy)phenyl)imidazo[1,5-a]pyrazin-3-yl)pyrrolidin-1-yl)prop-2-en-1-one]
Btk occupancy in vivo ([7]; 5 mg/kg single oral dose): full occupancy
IC50 ([1]; read-out: BTK IC50): < 10 nM
IC50 ([1]; read-out: BTK Inhibition): < 10 nM
IC50 [2]: > 10000 nM
IC50 [3]: > 10000 nM
IC50 [4]: 100 to 1000 nM

CC#CC(=O)N1CC[C@@H](c2nc(-c3ccc(Oc4cccc(OC)c4F)cc3)c3c(C(C)C)nccn23)C1 [Example 112, (R)-1-(3-(1-(4-(2-fluoro-3-methoxyphenoxy)phenyl)-8-isopropylimidazo[1,5-a]pyrazin-3-yl)pyrrolidin-1-yl)but-2-yn-1-one]
IC50 ([1]; read-out: BTK Inhibition): > 10000 nM

C=CC(=O)N1CCC[C@H]1c1nc(-c2ccc(Oc3cccc(OC)c3)cc2)c2cnccn12 [Example 16, (S)-1-(2-(1-(4-(3-methoxyphenoxy)phenyl)imidazo[1,5-a]pyrazin-3-yl)pyrrolidin-1-yl)prop-2-en-1-one]
IC50 ([1]; read-out: BTK IC50): < 10 nM
IC50 ([1]; read-out: BTK Inhibition): < 10 nM
IC50 [2]: > 10000 nM
IC50 [3]: > 10000 nM
IC50 [4]: 100 to 1000 nM
IC50 [5]: 1000 to 10000 nM
IC50 [6]: 1000 to 10000 nM

C=CC(=O)N1CCC[C@@H](c2nc(-c3ccc(Oc4cccc(OC)c4F)cc3)c3cnccn23)C1 [Example 1, (R)-1-(3-(1-(4-(2-fluoro-3-methoxyphenoxy)phenyl)imidazo[1,5-a]pyrazin-3-yl)piperidin-1-yl)prop-2-en-1-one]
Btk occupancy in vivo ([7]; 5 mg/kg single oral dose): full occupancy
IC50 ([1]; read-out: BTK IC50): < 10 nM
IC50 ([1]; read-out: BTK Inhibition): < 10 nM
IC50 [2]: > 10000 nM
IC50 [3]: > 10000 nM
IC50 [4]: 100 to 1000 nM
IC50 [5]: 100 to 1000 nM
IC50 [6]: 1000 to 10000 nM

C=CC(=O)N1CCC[C@@H](c2nc(-c3ccc(C(=O)Nc4ccccn4)cc3)c3c(C)ncc(C)n23)C1 [Example 184, (R)-4-(3-(1-acryloylpiperidin-3-yl)-5,8-dimethylimidazo [1,5-a]pyrazin-1-yl)-N-(pyridin-2-yl)benzamide]
IC50 ([1]; read-out: BTK Inhibition): < 10 nM

C=CC(=O)N1CCC[C@H]1c1nc(-c2ccc(Oc3cccc(OC)c3F)cc2)c2cncc(C)n12 [Example 62, (S)-1-(2-(1-(4-(2-fluoro-3-methoxyphenoxy)phenyl)-5-methylimidazo[1,5-a]pyrazin-3-yl)pyrrolidin-1-yl)prop-2-en-1-one]
IC50 ([1]; read-out: BTK Inhibition): < 10 nM

C=CC(=O)N1CC[C@@H](c2nc(-c3ccc(Oc4cccc(OC)c4F)cc3)c3cncc(OCCN(C)C)n23)C1 [Example 89, (R)-1-(3-(5-(2-(dimethylamino)ethoxy)-1-(4-(2-fluoro-3-methoxyphenoxy)phenyl)imidazo[1,5-a]pyrazin-3-yl)pyrrolidin-1-yl)prop-2-en-1-one]
IC50 ([1]; read-out: BTK Inhibition): < 10 nM

C=CC(=O)N1CC[C@@H](c2nc(-c3ccc(Oc4cccc(OC)c4F)cc3)c3cncc(OCCOC)n23)C1 [Example 104, (R)-1-(3-(1-(4-(2-fluoro-3-methoxyphenoxy)phenyl)-5-(2-methoxyethoxy)imidazo[1,5-a]pyrazin-3-yl)pyrrolidin-1-yl)prop-2-en-1-one]
IC50 ([1]; read-out: BTK Inhibition): < 10 nM

C=CC(=O)N1CCCC[C@H]1c1nc(-c2ccc(C(=O)Nc3ccccn3)cc2)c2c(C(F)(F)F)nccn12 [Example 199, (S)-4-(3-(1-acryloylpiperidin-2-yl)-8-(trifluoromethyl)imidazo[1,5-a]pyrazin-1-yl)-N-(pyridin-2-yl)benzamide]
IC50 ([1]; read-out: BTK Inhibition): > 10000 nM

CN(C)C(=O)N1CCCC[C@H]1c1nc(-c2ccc(C(=O)Nc3ccccn3)cc2)c2c(C(F)(F)F)nccn12 [Example 215, (S)-N,N-dimethyl-2-(1-(4-(pyridin-2-ylcarbamoyl)phenyl)-8-(trifluoromethyl)imidazo [1,5-a]pyrazin-3-yl) piperidine-1-carboxamide]
IC50 ([1]; read-out: BTK Inhibition): > 10000 nM

C=CC(=O)N1CC[C@@H](c2nc(-c3ccc(C(=O)Nc4ccccn4)cc3)c3c(C)ncc(OCC)n23)C1 [Example 206, (R)-4-(3-(1-acryloylpyrrolidin-3-yl)-5-ethoxy-8-methylimidazo[1,5-a]pyrazin-1-yl)-N-(pyridin-2-yl)benzamide]
IC50 ([1]; read-out: BTK Inhibition): < 10 nM

C=CC(=O)N1CCC[C@H]1c1nc(-c2ccc(Oc3cccc(OC)c3C)cc2)c2cnccn12 [Example 29, (S)-1-(2-(1-(4-(3-methoxy-2-methylphenoxy)phenyl)imidazo[1,5-a]pyrazin-3-yl)pyrrolidin-1-yl)prop-2-en-1-one]
IC50 ([1]; read-out: BTK Inhibition): < 10 nM

C=CC(=O)N1CCCC[C@H]1c1nc(-c2ccc(Oc3cccc(C)c3)cc2)c2c(C)nccn12 [Example 40, (S)-1-(2-(8-methyl-1-(4-(m-tolyloxy)phenyl)imidazo[1,5-a]pyrazin-3-yl)piperidin-1-yl)prop-2-en-1-one]
IC50 ([1]; read-out: BTK Inhibition): < 10 nM

C=CC(=O)N1CCC[C@H]1c1nc(-c2ccc(Oc3cccc(OC)c3F)cc2)c2c(C)ncc(C)n12 [Example 64, (S)-1-(2-(1-(4-(2-fluoro-3-methoxyphenoxy)phenyl)-5,8-dimethylimidazo[1,5-a]pyrazin-3-yl)pyrrolidin-1-yl)prop-2-en-1-one]
IC50 ([1]; read-out: BTK Inhibition): < 10 nM

C=CC(=O)N1CC[C@@H](c2nc(-c3ccc(Oc4cccc(OC)c4F)cc3)c3cncc(OC4CCC4)n23)C1 [Example 100, (R)-1-(3-(5-cyclobutoxy-1-(4-(2-fluoro-3-methoxyphenoxy)phenyl)imidazo[1,5-a]pyrazin-3-yl)pyrrolidin-1-yl)prop-2-en-1-one]
IC50 ([1]; read-out: BTK Inhibition): < 10 nM

C=CC(=O)N1CCCC[C@H]1c1nc(-c2ccc(C(=O)Nc3ccccn3)cc2)c2c(C3CC3)nccn12 [Example 191, (S)-4-(3-(1-acryloylpiperidin-2-yl)-8-cyclopropylimidazo [1,5-a]pyrazin-1-yl)-N-(pyridin-2-yl)benzamide]
IC50 ([1]; read-out: BTK Inhibition): > 10000 nM

C=CC(=O)N1CCC[C@H]1c1nc(-c2ccc(Oc3cccc(OC)c3F)cc2)c2c(C)nccn12 [Example 61, (S)-1-(2-(1-(4-(2-fluoro-3-methoxyphenoxy)phenyl)-8-methylimidazo[1,5-a]pyrazin-3-yl)pyrrolidin-1-yl)prop-2-en-1-one]
IC50 ([1]; read-out: BTK Inhibition): < 10 nM

C=CC(=O)N1CCC[C@H]1c1nc(-c2ccc(Oc3cccc(Cl)c3F)cc2)c2cnccn12 [Example 22, (S)-1-(2-(1-(4-(3-chloro-2-fluorophenoxy)phenyl)imidazo[1,5-a]pyrazin-3-yl)pyrrolidin-1-yl)prop-2-en-1-one]
IC50 ([1]; read-out: BTK Inhibition): < 10 nM

C=CC(=O)N1CC[C@@H](c2nc(-c3ccc(C(=O)Nc4ccccn4)cc3)c3cncc(OCC)n23)C1 [Example 194, (R)-4-(3-(1-acryloylpyrrolidin-3-yl)-5-ethoxyimidazo [1,5-a]pyrazin-1-yl)-N-(pyridin-2-yl)benzamide]
IC50 ([1]; read-out: BTK Inhibition): < 10 nM

C=CC(=O)N1CC[C@@H](c2nc(-c3ccc(Oc4cccc(OC)c4F)cc3)c3cncc(OC4CCOC4)n23)C1 (stereo partly drawn) [Example 98, 1-((3R)-3-(1-(4-(2-fluoro-3-methoxyphenoxy)phenyl)-5-((tetrahydrofuran-3-yl)oxy)imidazo[1,5-a]pyrazin-3-yl)pyrrolidin-1-yl)prop-2-en-1-one]
IC50 ([1]; read-out: BTK Inhibition): < 10 nM

CN(C)C(=O)N1CCCC[C@H]1c1nc(-c2ccc(C(=O)Nc3cc(C(F)(F)F)ccn3)cc2)c2c(C(F)(F)F)nccn12 [Example 216, (S)-N,N-dimethyl-2-(8-(trifluoromethyl)-1-(4-((4-(trifluoromethyl)pyridin-2-yl)carbamoyl)phenyl)imidazo[1,5-a]pyrazin-3-yl)piperidine-1-carboxamide]
IC50 ([1]; read-out: BTK Inhibition): > 10000 nM

C=CC(=O)N1CCC[C@H]1c1nc(-c2ccc(C(=O)Nc3ccccn3)cc2)c2c(C)ncc(C)n12 [Example 174, (S)-4-(3-(1-acryloylpyrrolidin-2-yl)-5,8-dimethylimidazo [1,5-a]pyrazin-1-yl)-N-(pyridin-2-yl)benzamide]
IC50 ([1]; read-out: BTK Inhibition): < 10 nM

— US10933063B2 (priority 2017, dated 2021)
